# According to ChEMBL document CHEMBL4811242, “Mechanistic selectivity investigation and 2D-QSAR study of some new antiproliferative pyrazoles and pyrazolopyridines as potential CDK2 inhibitors” (Eur J Med Chem, 2021):
# Tests used:
# MCF7 [1] = experiment: Antiproliferative activity against human MCF7 cells assessed as inhibition of cell growth after 48 hrs by MTT assay; format: functional, cell-based; conditions: MCF7, 48 h
# CDK2/Cyclin A2 = CDK2/Cyclin A2 (Homo sapiens, UniProt P24941); experiment: Inhibition of CDK2/Cyclin A2 (unknown origin) after 10 mins by ADP-Glo reagent based assay; format: protein-complex assay
# HepG2 [2] = experiment: Antiproliferative activity against human HepG2 cells assessed as inhibition of cell growth after 48 hrs by MTT assay; format: functional, cell-based; conditions: HepG2, 48 h
# [3] = Cytotoxicity against human THLE2 cells assessed as reduction in cell viability by MTT assay; format: cell-based, THLE-2
# [4] = Selectivity index, ratio of CC50 for human THLE2 cells to IC50 for human HepG2 cells; format: toxicity; conditions: THLE2 cells and HepG2 cells, read-out: Ratio CC50/IC50
# HepG2 [5] = experiment: Induction of apoptosis in human HepG2 cells assessed as caspase-3 concentration at IC50 by ELISA (reference value: 0.03822 +/- 0.0029 ng/ml); format: functional
# [6] = target: Cyclin-dependent kinase 4/cyclin D1 (Homo sapiens, UniProt P11802); experiment: Inhibition of CDK4/cyclin D1 (unknown origin); format: protein-complex assay
# HepG2 [7] = experiment: Induction of cell cycle arrest in human HepG2 cells assessed as accumulation at pre-G1 phase at IC50 after 48 hrs by propidium iodide staining based Flow cytometric analysis (reference value: 1.52%); format: functional
# HepG2 [8] = experiment: Induction of cell cycle arrest in human HepG2 cells assessed as accumulation at G0/G1 phase at IC50 after 48 hrs by propidium iodide staining based Flow cytometric analysis (reference value: 47.29%); format: functional
# [9] = target: Cyclin-dependent kinase 7/ cyclin H (Homo sapiens, UniProt P50613); experiment: Inhibition of CDK7/cyclin H (unknown origin); format: protein-complex assay
# HepG2 [10] = experiment: Induction of apoptosis in human HepG2 cells assessed as late apoptotic cells at IC50 after 48 hrs by Annexin V-FITC/propidium iodide staining based flow cytometric analysis (reference value: 0.18 %); format: functional
# HepG2 [11] = experiment: Induction of apoptosis in human HepG2 cells assessed as early apoptotic cells at IC50 after 48 hrs by Annexin V-FITC/propidium iodide staining based flow cytometric analysis (reference value: 0.38 %); format: functional
# HepG2 [12] = experiment: Induction of apoptosis in human HepG2 cells assessed as total apoptotic cells at IC50 after 48 hrs by Annexin V-FITC/propidium iodide staining based flow cytometric analysis (reference value: 1.52 %); format: functional
# HepG2 [13] = experiment: Induction of cell cycle arrest in human HepG2 cells assessed as accumulation at G2/M phase at IC50 after 48 hrs by propidium iodide staining based Flow cytometric analysis (reference value: 7.34%); format: functional
# HepG2 [14] = experiment: Induction of cell cycle arrest in human HepG2 cells assessed as accumulation at S phase at IC50 after 48 hrs by propidium iodide staining based Flow cytometric analysis (reference value: 45.37%); format: functional
# [15] = target: Cyclin-dependent kinase 1/cyclin B1 (Homo sapiens, UniProt P06493); experiment: Inhibition of CDK1/cyclin B (unknown origin); format: protein-complex assay
# HepG2 [16] = experiment: Induction of apoptosis in human HepG2 cells assessed as fold increase in caspase-3 activation at IC50 by ELISA; format: functional
# MCF7 [17] = experiment: Cytotoxicity against human MCF7 cells
# HepG2 [18] = experiment: Cytotoxicity against human HepG2 cells
# [19] = Cytotoxicity against human MCF10A cells assessed as reduction in cell viability by MTT assay; format: cell-based, MCF-10A
# [20] = Selectivity index, ratio of CC50 for human MCF10A cells to IC50 for human MCF7 cells; format: toxicity; conditions: MCF10A cells and MCF7 cells, read-out: Ratio CC50/IC50
# MCF7 [21] = experiment: Induction of apoptosis in human MCF7 cells assessed as late apoptotic cells at IC50 after 48 hrs by Annexin V-FITC/propidium iodide staining based flow cytometric analysis (reference value: 0.28 %); format: functional
# MCF7 [22] = experiment: Induction of apoptosis in human MCF7 cells assessed as fold increase in caspase-9 concentration at IC50 by ELISA; format: functional
# MCF7 [23] = experiment: Induction of cell cycle arrest in human MCF7 cells assessed as accumulation at pre-G1 phase at IC50 after 48 hrs by propidium iodide staining based Flow cytometric analysis (reference value: 1.84%); format: functional
# MCF7 [24] = experiment: Induction of apoptosis in human MCF7 cells assessed as early apoptotic cells at IC50 after 48 hrs by Annexin V-FITC/propidium iodide staining based flow cytometric analysis (reference value: 0.57 %); format: functional
# MCF7 [25] = experiment: Induction of cell cycle arrest in human MCF7 cells assessed as accumulation at G0/G1 phase at IC50 after 48 hrs by propidium iodide staining based Flow cytometric analysis (reference value: 55.71%); format: functional
# MCF7 [26] = experiment: Induction of cell cycle arrest in human MCF7 cells assessed as accumulation at G2/M phase at IC50 after 48 hrs by propidium iodide staining based Flow cytometric analysis (reference value: […]%); format: functional
# MCF7 [27] = experiment: Induction of apoptosis in human MCF7 cells assessed as total apoptotic cells at IC50 after 48 hrs by Annexin V-FITC/propidium iodide staining based flow cytometric analysis (reference value: 1.84 %); format: functional
# MCF7 [28] = experiment: Induction of apoptosis in human MCF7 cells assessed as caspase-9 concentration at IC50 by ELISA (reference value: 2.018 +/- 0.14 ng/ml); format: functional
# MCF7 [29] = experiment: Induction of cell cycle arrest in human MCF7 cells assessed as accumulation at S phase at IC50 after 48 hrs by propidium iodide staining based Flow cytometric analysis (reference value: 39.15%); format: functional
# Cyclin-dependent kinase 1/cyclin B1, sequence (P06493 whole entry): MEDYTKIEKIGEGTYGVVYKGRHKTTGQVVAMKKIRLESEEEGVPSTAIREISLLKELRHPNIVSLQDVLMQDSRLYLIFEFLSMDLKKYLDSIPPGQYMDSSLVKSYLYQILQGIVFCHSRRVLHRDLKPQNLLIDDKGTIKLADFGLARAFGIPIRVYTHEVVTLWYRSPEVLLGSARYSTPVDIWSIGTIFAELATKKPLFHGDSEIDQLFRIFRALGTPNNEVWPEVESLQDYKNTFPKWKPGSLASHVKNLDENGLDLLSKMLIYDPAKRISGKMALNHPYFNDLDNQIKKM
# Cyclin-dependent kinase 1/cyclin B1, sequence (P14635 whole entry, further chain): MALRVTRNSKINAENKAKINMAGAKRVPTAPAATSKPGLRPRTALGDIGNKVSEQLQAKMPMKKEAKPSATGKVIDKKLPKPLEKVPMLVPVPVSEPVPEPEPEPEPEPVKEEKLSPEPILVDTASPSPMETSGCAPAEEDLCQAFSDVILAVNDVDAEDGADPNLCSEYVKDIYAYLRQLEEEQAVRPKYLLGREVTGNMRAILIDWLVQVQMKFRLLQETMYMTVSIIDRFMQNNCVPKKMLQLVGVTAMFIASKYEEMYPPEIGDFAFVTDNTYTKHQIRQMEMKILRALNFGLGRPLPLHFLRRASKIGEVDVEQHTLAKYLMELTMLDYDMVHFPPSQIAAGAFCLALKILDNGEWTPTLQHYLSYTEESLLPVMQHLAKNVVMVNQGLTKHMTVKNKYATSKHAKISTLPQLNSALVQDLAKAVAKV
# Cyclin-dependent kinase 7/ cyclin H, sequence (P51946 whole entry): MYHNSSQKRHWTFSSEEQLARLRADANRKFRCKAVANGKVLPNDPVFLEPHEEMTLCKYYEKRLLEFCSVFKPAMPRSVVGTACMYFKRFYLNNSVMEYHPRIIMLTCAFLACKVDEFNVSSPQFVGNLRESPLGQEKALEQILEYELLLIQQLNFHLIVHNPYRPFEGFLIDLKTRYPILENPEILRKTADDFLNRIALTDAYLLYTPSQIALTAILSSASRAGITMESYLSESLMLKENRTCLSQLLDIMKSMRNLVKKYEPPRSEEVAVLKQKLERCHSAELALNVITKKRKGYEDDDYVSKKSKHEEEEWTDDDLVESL
# Cyclin-dependent kinase 7/ cyclin H, sequence (P50613 whole entry): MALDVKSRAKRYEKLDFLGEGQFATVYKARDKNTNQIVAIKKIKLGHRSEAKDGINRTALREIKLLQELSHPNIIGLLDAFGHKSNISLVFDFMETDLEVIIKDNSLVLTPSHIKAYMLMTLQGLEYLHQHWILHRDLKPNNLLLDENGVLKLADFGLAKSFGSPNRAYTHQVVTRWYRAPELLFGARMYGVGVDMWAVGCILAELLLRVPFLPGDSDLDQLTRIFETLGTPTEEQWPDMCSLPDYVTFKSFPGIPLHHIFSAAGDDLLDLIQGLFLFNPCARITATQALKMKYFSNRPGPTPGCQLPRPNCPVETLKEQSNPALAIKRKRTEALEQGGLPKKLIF
# Cyclin-dependent kinase 4/cyclin D1, sequence (P11802 whole entry): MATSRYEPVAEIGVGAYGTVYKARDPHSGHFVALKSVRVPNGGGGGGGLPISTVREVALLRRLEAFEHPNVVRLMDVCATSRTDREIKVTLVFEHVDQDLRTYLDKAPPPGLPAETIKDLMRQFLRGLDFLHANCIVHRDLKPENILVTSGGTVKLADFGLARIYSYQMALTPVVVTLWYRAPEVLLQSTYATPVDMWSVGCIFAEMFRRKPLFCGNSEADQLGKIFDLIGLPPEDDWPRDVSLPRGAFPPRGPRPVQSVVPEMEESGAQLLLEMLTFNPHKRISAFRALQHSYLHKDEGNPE
# Cyclin-dependent kinase 4/cyclin D1, sequence (P24385 whole entry, further chain): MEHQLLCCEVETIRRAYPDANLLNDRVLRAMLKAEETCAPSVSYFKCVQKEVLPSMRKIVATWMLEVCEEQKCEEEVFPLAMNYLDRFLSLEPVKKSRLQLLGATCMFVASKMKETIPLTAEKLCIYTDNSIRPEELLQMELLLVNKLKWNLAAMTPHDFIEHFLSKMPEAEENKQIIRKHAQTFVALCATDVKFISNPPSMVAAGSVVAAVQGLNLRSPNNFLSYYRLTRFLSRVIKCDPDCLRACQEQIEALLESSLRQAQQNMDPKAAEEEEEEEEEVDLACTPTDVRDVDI
Compound,IC50 (MCF7 [1]) [nM],IC50 (CDK2/Cyclin A2) [nM],IC50 (HepG2 [2]) [nM],CC50 [3] [nM],selectivity ratio [4],also measured
O=C(C=CNc1cc(-c2ccccc2)nn1-c1ccccc1)c1ccc(Cl)cc1,8070,122,41200,,,
N#Cc1c(-c2ccccc2)nc2c(c(-c3ccccc3)nn2-c2ccccc2)c1-c1ccc(N2CCOCC2)cc1,3340,96,10500,,,
CC(C)c1cnn2c(NCc3ccccc3)cc(N[C@@H](CO)[C@H](O)CO)nc12,,,,,,IC50 (MCF7 [17]): 300 nM; IC50 (HepG2 [18]): 1000 nM
COc1ccc(C(=O)C=CNc2cc(-c3ccccc3)nn2-c2ccccc2)cc1,1290,42,2030,35200,17.3,selectivity ratio [20]: 13.1; Activity (MCF7 [21]): 20.64%; IC50 [6]: 16700 nM; Ki [6]: 9120 nM; fold change (FC) (MCF7 [22]): 9; Activity (MCF7 [23]): 36.51%; Activity (MCF7 [24]): 2.69%; CC50 [19]: 16900 nM; IC50 [9]: 326 nM; Ki [9]: 208 nM; Activity (MCF7 [25]): 37.29%; Ki (CDK2/Cyclin A2): 25 nM; Activity (MCF7 [26]): 3.47%; Activity (MCF7 [27]): 36.51%; Activity (MCF7 [28]): 18.96 ng/mL; Activity (MCF7 [29]): 59.24%; IC50 [15]: 955 nM; Ki [15]: 581 nM
c1ccc(-c2nn(-c3ccccc3)c3nccc(-c4cccs4)c23)cc1,39300,56.8,39300,,,
O=C(C=CNc1cc(-c2ccccc2)nn1-c1ccccc1)c1ccc(F)cc1,9180,133,59900,,,
N#Cc1c(-c2ccccc2)nc2c(c(-c3ccccc3)nn2-c2ccccc2)c1-c1ccc(N2CCCCC2)cc1,27000,329,30900,,,
COc1ccc(-c2nc3c(c(-c4ccccc4)nn3-c3ccccc3)c(-c3ccc(N4CCCCC4)cc3)c2C#N)cc1,2760,85.1,12500,,,
N#Cc1c(-c2ccc(Cl)cc2)nc2c(c(-c3ccccc3)nn2-c2ccccc2)c1-c1ccc(N2CCOCC2)cc1,3650,644,21500,,,
Fc1ccc(-c2ccnc3c2c(-c2ccccc2)nn3-c2ccccc2)cc1,1570,41.5,1570,19700,12.5,Activity (HepG2 [5]): 0.3872 ng/mL; selectivity ratio [20]: 18; IC50 [6]: 6920 nM; Ki [6]: 3780 nM; Activity (HepG2 [7]): 32.19%; Activity (HepG2 [8]): 38.47%; CC50 [19]: 28300 nM; IC50 [9]: 1990 nM; Ki [9]: 1270 nM; Activity (HepG2 [10]): 17.43%; Ki (CDK2/Cyclin A2): 25 nM; Activity (HepG2 [11]): 6.15%; Activity (HepG2 [12]): 32.19%; Activity (HepG2 [13]): 37.64%; Activity (HepG2 [14]): 23.89%; IC50 [15]: 1350 nM; Ki [15]: 823 nM; fold change (FC) (HepG2 [16]): 10
Cc1ccc(-c2ccnc3c2c(-c2ccccc2)nn3-c2ccccc2)cc1,5590,81.9,10700,,,

# The remaining compounds from weak to strong by IC50 (MCF7 [1]), led by results:
IC50 (MCF7 [1]) [nM],IC50 (CDK2/Cyclin A2) [nM],IC50 (HepG2 [2]) [nM],Compound,CC50 [3] [nM],selectivity ratio [4],also measured
61100,386,61100,Clc1ccc(-c2ccnc3c2c(-c2ccccc2)nn3-c2ccccc2)cc1,,,
30200,63.2,7320,Cc1ccc(C(=O)C=CNc2cc(-c3ccccc3)nn2-c2ccccc2)cc1,,,
28700,270,6590,COc1ccc(-c2ccnc3c2c(-c2ccccc2)nn3-c2ccccc2)cc1,,,
28200,348,3210,c1ccc(-c2ccnc3c2c(-c2ccccc2)nn3-c2ccccc2)cc1,34200,10.7,
21700,517,8810,O=C(C=CNc1cc(-c2ccccc2)nn1-c1ccccc1)c1ccc(Br)cc1,,,
15400,201,2420,O=C(C=CNc1cc(-c2ccccc2)nn1-c1ccccc1)c1cccs1,19900,8.22,
14300,161,3140,CN1CCN(c2ccc(-c3c(C#N)c(-c4ccccc4)nc4c3c(-c3ccccc3)nn4-c3ccccc3)cc2)CC1,15100,4.8,
13300,80.7,49900,Brc1ccc(-c2ccnc3c2c(-c2ccccc2)nn3-c2ccccc2)cc1,,,
10600,195,3210,N#Cc1c(-c2ccc(Cl)cc2)nc2c(c(-c3ccccc3)nn2-c2ccccc2)c1-c1ccc(N2CCCCC2)cc1,12500,3.89,
9650,318,2660,O=C(C=CNc1cc(-c2ccccc2)nn1-c1ccccc1)c1ccccc1,53400,20.1,
2710,129,14600,CN1CCN(c2ccc(-c3c(C#N)c(-c4ccc(Cl)cc4)nc4c3c(-c3ccccc3)nn4-c3ccccc3)cc2)CC1,,,
2650,66.5,1330,COc1ccc(-c2nc3c(c(-c4ccccc4)nn3-c3ccccc3)c(-c3ccc(N4CCN(C)CC4)cc3)c2C#N)cc1,37500,28.2,Activity (HepG2 [5]): 0.3714 ng/mL; IC50 [6]: 104000 nM; Ki [6]: 56900 nM; Activity (HepG2 [7]): 22.15%; Activity (HepG2 [8]): 48.02%; IC50 [9]: 225 nM; Ki [9]: 144 nM; Activity (HepG2 [10]): 11.17%; Ki (CDK2/Cyclin A2): 40 nM; Activity (HepG2 [11]): 6.07%; Activity (HepG2 [12]): 22.2%; Activity (HepG2 [13]): 3.62%; Activity (HepG2 [14]): 48.36%; IC50 [15]: 209 nM; Ki [15]: 127 nM; fold change (FC) (HepG2 [16]): 10
1880,,7300,COc1cccc2c1C(=O)c1c(O)c3c(c(O)c1C2=O)C[C@@](O)(C(=O)CO)C[C@@H]3O[C@H]1C[C@H](N)[C@H](O)[C@H](C)O1 [DOXORUBICIN],12700,,CC50 [19]: 13900 nM
930,221,8130,COc1ccc(-c2nc3c(c(-c4ccccc4)nn3-c3ccccc3)c(-c3ccc(N4CCOCC4)cc3)c2C#N)cc1,,,selectivity ratio [20]: 59.9; Activity (MCF7 [21]): 9.86%; IC50 [6]: 21200 nM; Ki [6]: 11600 nM; fold change (FC) (MCF7 [22]): 9; Activity (MCF7 [23]): 24.36%; Activity (MCF7 [24]): 9.36%; CC50 [19]: 55700 nM; IC50 [9]: 318 nM; Ki [9]: 203 nM; Activity (MCF7 [25]): 44.38%; Ki (CDK2/Cyclin A2): 131 nM; Activity (MCF7 [26]): 21.2%; Activity (MCF7 [27]): 24.4%; Activity (MCF7 [28]): 20.32 ng/mL; Activity (MCF7 [29]): 34.42%; IC50 [15]: 718 nM; Ki [15]: 437 nM
